Data reported in patent US6337089B1, “Microcapsule containing core material and method for producing the same” (Seiwa Kasei Company, Limited, priority 1998, dated 2002).

Assay: Analysis Method 8: ultraviolet ray transmittance on surgical tape
Details: wave-length of 310 nm; applied amounts differ per sample
Experimental: A measuring sample was applied on a surgical tape (TRANSPORE TAPE, manufactured by 3M Corp.), this was irradiated with a ultraviolet ray, and the amount of the transmitted light was measured by a SPF analyzer, (UV-1000S, manufactured by LABSPHERE Corp., US). The numerical value in the examples is an average of 40 values. The amount of the sample applied on a surgical tape is 2 μl/cm^2 and a certain amount when measuring SPF value and ultraviolet ray transmittance, respectively.

## CCCCC(CC)COC(=O)C=Cc1ccc(OC)cc1 (stereo not shown) [2-ethylhexyl p-methoxy-cinnamate, 2-ethylhexyl p-methoxycinnamate]
  Ultraviolet ray transmittance: 2.2
